From ChEMBL document CHEMBL3232814, “Synthesis and anticancer structure activity relationship investigation of cationic anthraquinone analogs” (2014)

Tests used:
Assay type in all cases: functional
[1] = Growth inhibition of human NCI60 cells assessed as cell growth; set-up: concentration or dose not given beside the values
[2] = Growth inhibition of human SF295 cells; conditions: SF-295
[3] = Growth inhibition of human HOP92 cells
NCI-H226 = assay: Growth inhibition of human NCI-H226 cells
NCI-H460 = assay: Growth inhibition of human NCI-H460 cells
A549 = assay: Growth inhibition of human A549 cells
SK-MEL-5 = assay: Growth inhibition of human SK-MEL-5 cells
SK-MEL-2 = assay: Growth inhibition of human SK-MEL-2 cells
SK-MEL-28 = assay: Growth inhibition of human SK-MEL-28 cells
HOP-62 = assay: Growth inhibition of human HOP62 cells
[4] = Growth inhibition of human EKVX cells
SF-268 = assay: Growth inhibition of human SF268 cells
NCI-H522 = assay: Growth inhibition of human NCI-H522 cells
NCI-H322M = assay: Growth inhibition of human NCI-H322M cells
KM12 = assay: Growth inhibition of human KM12 cells
SNB-75 = assay: Growth inhibition of human SNB75 cells
MDA-MB-435 = assay: Growth inhibition of human MDA-MB-435 cells
[5] = Growth inhibition of human HCC2998 cells
Malme-3M = assay: Growth inhibition of human MALME-3M cells
[6] = Growth inhibition of human UACC62 cells
M14 = assay: Growth inhibition of human M14 cells
SW-620 = assay: Growth inhibition of human SW620 cells
SNB-19 = assay: Growth inhibition of human SNB19 cells
[7] = Growth inhibition of human UACC257 cells
NCI-H23 = assay: Growth inhibition of human NCI-H23 cells
HT-29 = assay: Growth inhibition of human HT-29 cells
U-251 = assay: Growth inhibition of human U251 cells
[8] = Growth inhibition of human SF539 cells
[9] = Growth inhibition of human HCT15 cells
HCT-116 = assay: Growth inhibition of human HCT116 cells
COLO 205 = assay: Growth inhibition of human COLO205 cells
[10] = Growth inhibition of human LOXIMVI cells; conditions: LOX IMVI
[11] = read-out: LC50 (the source's name)

For `C[n+]1nn(-c2ccc(Cl)cc2)c2c1C(=O)c1ccccc1C2=O.O=S(=O)([O-])C(F)(F)F`, which Activity [1] is on record?
The Activity was 101.7%.

For `C[n+]1nn(-c2ccc(F)cc2)c2c1C(=O)c1ccccc1C2=O.O=S(=O)([O-])C(F)(F)F`, which GI50 [2] is on record?
The GI50 was 0.58 µM.

And the LC50 (concentration killing 50% of cells) [2]?
Its LC50 (concentration killing 50% of cells) is 4.94 µM.

What about the GI50 ([3]; HOP-92) of the same compound?
The GI50 was 10.7 µM.

What about the CC50 ([3]; HOP-92, read-out: LC50 (the source's name)) of the same compound?
The CC50 was greater than 100 µM.

And the GI50 (NCI-H226)?
Its GI50 is 2.26 µM.

And the CC50 (NCI-H226; [11])?
The CC50 was 23 µM.

And the GI50 (NCI-H460)?
Its GI50 is 0.63 µM.

What about the CC50 (NCI-H460; [11]) of the same compound?
The CC50 was 9 µM.

And the GI50 (A549)?
Its GI50 is 0.67 µM.

And the CC50 (A549; [11])?
Its CC50 is 5.46 µM.

What about the GI50 (SK-MEL-5) of the same compound?
The GI50 was 0.17 µM.

And the LC50 (lethal concentration 50) (SK-MEL-5)?
The LC50 (lethal concentration 50) was 0.6 µM.

What about the GI50 (SK-MEL-2) of the same compound?
The GI50 was 2.27 µM.

What about the CC50 (SK-MEL-2; [11]) of the same compound?
The CC50 was 33.7 µM.

What about the GI50 (SK-MEL-28) of the same compound?
The GI50 was 4.27 µM.

And the CC50 (SK-MEL-28; [11])?
The CC50 was 45.9 µM.

And the GI50 (HOP-62)?
Its GI50 is 2.4 µM.

What about the CC50 (HOP-62; [11]) of the same compound?
Its CC50 is 32.9 µM.

And the GI50 [4]?
Its GI50 is 3.28 µM.

And the CC50 [4, 11]?
The CC50 was 62 µM.

And the GI50 (SF-268)?
Its GI50 is 3.67 µM.

And the CC50 (SF-268; [11])?
Its CC50 is 46 µM.

And the GI50 (NCI-H522)?
The GI50 was 12.1 µM.

And the CC50 (NCI-H522; [11])?
Its CC50 is 53.8 µM.

What about the GI50 (NCI-H322M) of the same compound?
The GI50 was 0.45 µM.

And the CC50 (NCI-H322M; [11])?
Its CC50 is 4.22 µM.

What about the GI50 (KM12) of the same compound?
The GI50 was 2.4 µM.

What about the CC50 (KM12; [11]) of the same compound?
Its CC50 is 33.5 µM.

What about the GI50 (SNB-75) of the same compound?
The GI50 was 1.94 µM.

What about the CC50 (SNB-75; [11]) of the same compound?
The CC50 was 7.17 µM.

What about the GI50 (MDA-MB-435) of the same compound?
Its GI50 is 0.26 µM.

And the CC50 (MDA-MB-435; [11])?
Its CC50 is 2.21 µM.

And the GI50 ([5]; HCC 2998)?
Its GI50 is 1.4 µM.

What about the CC50 ([5]; HCC 2998, read-out: LC50 (the source's name)) of the same compound?
Its CC50 is 8.22 µM.

And the GI50 (Malme-3M)?
The GI50 was 0.35 µM.

And the CC50 (Malme-3M; [11])?
Its CC50 is 4.75 µM.

And the GI50 ([6]; UACC-62)?
The GI50 was 1.55 µM.

What about the CC50 ([6]; UACC-62, read-out: LC50 (the source's name)) of the same compound?
Its CC50 is 7.67 µM.

And the GI50 (M14)?
The GI50 was 0.34 µM.

What about the CC50 (M14; [11]) of the same compound?
Its CC50 is 3.89 µM.

And the GI50 (SW-620)?
The GI50 was 6.12 µM.

What about the CC50 (SW-620; [11]) of the same compound?
The CC50 was 47.5 µM.

And the GI50 (SNB-19)?
The GI50 was 1.37 µM.

And the LC50 (SNB-19)?
The LC50 was 5.88 µM.

And the GI50 ([7]; UACC-257)?
The GI50 was 0.6 µM.

What about the CC50 ([7]; UACC-257, read-out: LC50 (the source's name)) of the same compound?
Its CC50 is 6.93 µM.

What about the GI50 (NCI-H23) of the same compound?
The GI50 was 0.82 µM.

And the CC50 (NCI-H23; [11])?
Its CC50 is 7.25 µM.

What about the GI50 (HT-29) of the same compound?
The GI50 was 2.51 µM.

What about the LC50 (HT-29) of the same compound?
Its LC50 is 48 µM.

And the GI50 (U-251)?
The GI50 was 7.86 µM.

And the LC50 (U-251)?
The LC50 was 45.3 µM.

What about the GI50 ([8]; SF-539) of the same compound?
Its GI50 is 1.83 µM.

And the CC50 ([8]; SF-539, read-out: LC50 (the source's name))?
The CC50 was 8.4 µM.

What about the GI50 ([9]; HCT-15) of the same compound?
The GI50 was 3.72 µM.

And the CC50 ([9]; HCT-15, read-out: LC50 (the source's name))?
The CC50 was 50.9 µM.

What about the GI50 (HCT-116) of the same compound?
The GI50 was 1.5 µM.

And the CC50 (HCT-116; [11])?
The CC50 was 8.19 µM.

What about the GI50 (COLO 205) of the same compound?
The GI50 was 0.35 µM.

What about the CC50 (COLO 205; [11]) of the same compound?
Its CC50 is 3.54 µM.

What about the GI50 [10] of the same compound?
The GI50 was 1.35 µM.

What about the CC50 [10, 11] of the same compound?
Its CC50 is 8.17 µM.

What about the Activity [1] of the same compound?
Its Activity is 43.38%.
